Laboratory results taken from ChEMBL document CHEMBL1131884, “Dicationic 2-fluorenonylcarbapenems: potent anti-MRS agents with improved solubility and pharmacokinetic properties” (Bioorg Med Chem Lett, 1999).
≈ marks a conversion by molar mass, not a printed value.

How the values were obtained:
[1] = Half life compared to Cilastatin evaluated in Rhesus monkeys at the dose of 10 mg/kg by iv bolus injection; type: ADME, organism-based; design: dose 10 mg/kg, route intravenous; details: cercopithecidae, in vivo, read-out: Beta t1/2 (converted)
[2] = AUC (area under curve) compared to Cilastatin evaluated in Rhesus monkeys at the dose of 10 mg/kg by iv bolus injection; type: ADME, organism-based; design: dose 10 mg/kg, route intravenous; details: cercopithecidae, plasma
[3] = Glomerular Filtration Rate(GFR)of the compound compared to Cilastatin evaluated in Rhesus monkeys at the dose of 10 mg/kg by iv bolus injection; type: ADME, organism-based; design: dose 10 mg/kg, route intravenous; details: cercopithecidae, in vivo
[4] = Plasma clearance compared to Cilastatin evaluated in Rhesus monkeys at the dose of 10 mg/kg by iv bolus injection; type: ADME, organism-based; design: dose 10 mg/kg, route intravenous; details: cercopithecidae
MecA = target: T1, MecA (Staphylococcus aureus, UniProt Q7DHH4); experiment: Binding affinity against PBP2a receptor by competition analysis with [3H]benzylpenicillin using cell membrane fractions from the MRSA COL strain.
T1 sequence (Q7DHH4 whole entry): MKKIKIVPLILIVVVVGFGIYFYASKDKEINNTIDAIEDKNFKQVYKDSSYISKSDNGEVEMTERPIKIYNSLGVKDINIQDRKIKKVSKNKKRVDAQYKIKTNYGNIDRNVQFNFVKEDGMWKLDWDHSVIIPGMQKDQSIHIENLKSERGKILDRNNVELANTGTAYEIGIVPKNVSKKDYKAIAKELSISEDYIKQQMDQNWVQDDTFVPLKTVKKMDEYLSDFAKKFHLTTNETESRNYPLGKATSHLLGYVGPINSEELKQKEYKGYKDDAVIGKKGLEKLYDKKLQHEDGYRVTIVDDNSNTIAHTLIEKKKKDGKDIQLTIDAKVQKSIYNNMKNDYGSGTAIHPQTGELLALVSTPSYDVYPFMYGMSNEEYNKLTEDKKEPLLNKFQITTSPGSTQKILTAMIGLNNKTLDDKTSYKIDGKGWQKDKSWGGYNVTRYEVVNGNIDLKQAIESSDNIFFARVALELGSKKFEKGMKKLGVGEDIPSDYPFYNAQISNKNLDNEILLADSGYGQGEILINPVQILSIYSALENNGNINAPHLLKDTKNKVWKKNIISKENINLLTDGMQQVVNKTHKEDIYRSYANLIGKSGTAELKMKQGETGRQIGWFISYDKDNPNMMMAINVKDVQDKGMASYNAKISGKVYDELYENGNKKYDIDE

[5] = Urinary recovery compared to Cilastatin evaluated in Rhesus monkeys at the dose of 10 mg/kg by iv bolus injection; type: ADME, organism-based, Urine; design: dose 10 mg/kg, route intravenous; details: cercopithecidae, in vivo
[6] = Renal clearance compared to Cilastatin evaluated in Rhesus monkeys at the dose of 10 mg/kg by iv bolus injection; type: ADME, organism-based, Kidney; design: dose 10 mg/kg, route intravenous; details: cercopithecidae, in vivo, read-out: Renal clearance
Streptococcus pyogenes [7] = experiment: Antibacterial activity against Streptococcus pyogenes
Staphylococcus aureus [8] = experiment: Antibacterial activity against MSSA (Methicillin-sensitive Staphylococcus aureus); type: functional
[9] = AUC (area under curve) evaluated in Rhesus monkeys at the dose of 10 mg/kg by iv bolus injection; type: ADME, organism-based, Plasma; design: dose 10 mg/kg, route intravenous; details: cercopithecidae
[10] = Half life evaluated in Rhesus monkeys at the dose of 10 mg/kg by iv bolus injection; type: ADME, organism-based; design: dose 10 mg/kg, route intravenous; details: cercopithecidae, in vivo, read-out: Beta t1/2 (converted)
Mus musculus [11] = experiment: In vivo antibacterial activity against MSSA MB 2985 strain at the dose ~4 *10e7 cfu in brain heart broth along with antibiotic by administration at 0 hour in mice; type: functional
Mus musculus [12] = experiment: In vivo antibacterial activity against MRSA 76 virginia strain at the dose ~1 *10e7 cfu in 5 percent hog gastric mucin along with antibiotic by sc administration at 0 and +4 hrs in mice; type: functional
Enterococcus faecium = experiment: Antibacterial activity against vancomycin-resistant Enterococcal faecium strain; type: functional
Mus musculus [13] = experiment: In vivo antibacterial activity against MSSA MB 2985 strain at the dose ~4 *10e7 cfu in brain heart broth along with antibiotic by sc administration at 0 hour in mice; type: functional
[14] = target: T2, Dipeptidase 1 (Sus scrofa) (UniProt P22412); experiment: Susceptibility to mammalian dehydropeptidase, DHP-1(Porcine)
T2 sequence (whole entry): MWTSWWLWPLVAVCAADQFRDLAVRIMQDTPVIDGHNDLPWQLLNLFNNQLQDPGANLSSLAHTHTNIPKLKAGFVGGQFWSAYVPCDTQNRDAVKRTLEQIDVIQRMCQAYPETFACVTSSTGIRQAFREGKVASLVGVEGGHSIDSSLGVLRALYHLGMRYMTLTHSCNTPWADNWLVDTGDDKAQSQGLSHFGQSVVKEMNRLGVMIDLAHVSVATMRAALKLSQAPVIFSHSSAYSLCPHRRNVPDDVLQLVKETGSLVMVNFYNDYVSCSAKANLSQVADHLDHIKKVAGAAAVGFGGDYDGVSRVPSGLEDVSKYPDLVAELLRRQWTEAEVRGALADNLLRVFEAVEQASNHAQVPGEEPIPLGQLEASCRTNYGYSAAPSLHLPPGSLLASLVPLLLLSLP

Bacteria = experiment: Antibacterial activity against Gram negative bacteria; type: functional
Enterococcus faecalis [15] = experiment: Antibacterial activity against Enterococcus faecalis; type: functional
Enterococcus faecalis [16] = experiment: Antibacterial activity against vancomycin-resistant Enterococcus faecalis strain; type: functional
Staphylococcus sp. = experiment: Antibacterial activity against methicillin-resistant coagulase negative Staphylococci (MRCNS); type: functional
[17] = Glomerular Filtration Rate(GFR) evaluated in Rhesus monkeys at the dose of 10 mg/kg by iv bolus injection; type: ADME, organism-based; design: dose 10 mg/kg, route intravenous; details: cercopithecidae, in vivo
[18] = Renal clearance evaluated in Rhesus monkeys at the dose of 10 mg/kg by iv bolus injection; type: ADME, organism-based, Kidney; design: dose 10 mg/kg, route intravenous; details: cercopithecidae, in vivo, read-out: Renal clearance
Staphylococcus aureus [19] = experiment: Antibacterial activity against methicillin-resistant Staphylococcus aureus (MRSA); type: functional
[20] = Plasma clearance evaluated in Rhesus monkeys at the dose of 10 mg/kg by iv bolus injection; type: ADME, organism-based; design: dose 10 mg/kg, route intravenous; details: cercopithecidae
Streptococcus pneumoniae = experiment: Antibacterial activity against penicillin-resistant Streptococcus pneumoniae; type: functional
Streptococcus pyogenes [21] = experiment: Antibacterial activity against Streptococcus pyogenes; type: functional
[22] = target: T2, Dipeptidase 1 (Sus scrofa); experiment: Susceptibility to mammalian dehydropeptidas, DHP-1(Porcine)

| Compound | IC50 (MecA) | MIC (Staphylococcus aureus [8]) | half-life [10] | MIC (Mus musculus [11]) | ED50 (Mus musculus [12]) | MIC (Mus musculus [12]) | MIC (Enterococcus faecium) | ED50 (Mus musculus [13]) | MIC (Bacteria) | MIC (Enterococcus faecalis [15]) | MIC (Enterococcus faecalis [16]) | MIC50 (Staphylococcus sp.) | MIC90 (Staphylococcus sp.) | GFR [17] | CL renal [18] | MIC50 (Staphylococcus aureus [19]) | MIC90 (Staphylococcus aureus [19]) | clearance [20] | MIC (Streptococcus pneumoniae) | MIC (Streptococcus pyogenes [21]) | other results |
| --- | --- | --- | --- | --- | --- | --- | --- | --- | --- | --- | --- | --- | --- | --- | --- | --- | --- | --- | --- | --- | --- |
| C[C@@H](O)[C@H]1C(=O)N2C(C(=O)O)=C(SCCN=CN)C[C@H]12 [IMIPENEM ANHYDROUS] | 334000 nM |  |  |  |  |  |  |  |  |  |  |  |  |  |  |  |  |  |  |  | half-life [1]: 0.6 h; AUC [2]: 24800 ng·h/mL; GFR [3]: 2.98 mL/min/kg; clearance [4]: 6.72 mL/min/kg; Urinary recovery [5]: 82; CL renal [6]: 5.44 mL/min/kg |
| C[C@@H](O)[C@H]1C(=O)N2C(C(=O)[O-])=C(c3ccc4c(c3)-c3ccc(C[N+]56CC[N+](CC(N)=O)(CC5)CC6)cc3C4=O)C[C@H]12.[Cl-] | 573 nM | 0.03 µg/mL | 0.91 h | 0.004 µg/mL | 0.5 mg kg-1 dose-1 | 1 µg/mL | 16 µg/mL | 0.042 mg/kg | 1.05 µg/mL | 0.125 µg/mL | 2 µg/mL | 2 µg/mL | 2 µg/mL | 2.96 mL/min/kg | 1.88 mL/min/kg | 1 µg/mL | 4 µg/mL | 4.74 mL/min/kg | 0.09 µg/mL |  | MIC (Streptococcus pyogenes [7]): < 0.031 µg/mL; AUC ([9]; in vivo): 35.14 µg/mL; Rate of hydrolysis [14]: 0.055 |
| CN[C@H](CC(C)C)C(=O)N[C@H]1C(=O)N[C@@H](CC(N)=O)C(=O)N[C@H]2C(=O)N[C@H]3C(=O)N[C@H](C(=O)N[C@H](C(=O)O)c4cc(O)cc(O)c4-c4cc3ccc4O)[C@H](O)c3ccc(c(Cl)c3)Oc3cc2cc(c3O[C@@H]2O[C@H](CO)[C@@H](O)[C@H](O)[C@H]2O[C@H]2C[C@](C)(N)[C@H](O)[C@H](C)O2)Oc2ccc(cc2Cl)[C@H]1O [VANCOMYCIN] |  |  |  | 1 µg/mL (≈ 0.69 µM) | 2.33 mg kg-1 dose-1 | 1 µg/mL (≈ 0.69 µM) | > 64 µg/mL | 3.7 mg/kg | > 64 µg/mL |  | 32 µg/mL (≈ 22.1 µM) | 4 µg/mL (≈ 2.76 µM) | 4 µg/mL (≈ 2.76 µM) |  |  | 1 µg/mL (≈ 0.69 µM) | 2 µg/mL (≈ 1.38 µM) |  | 0.25 µg/mL (≈ 0.173 µM) | 0.25 µg/mL (≈ 0.173 µM) |  |
| C[C@@H](O)[C@H]1C(=O)N2C(C(=O)[O-])=C(c3ccc4c(c3)-c3ccc(C[n+]5ccn(C)c5)cc3C4=O)C[C@H]12 | 1060 nM | 0.03 µg/mL (≈ 0.0639 µM) | 1.17 h | 0.008 µg/mL (≈ 0.017 µM) | 0.92 mg kg-1 dose-1 | 1 µg/mL (≈ 2.13 µM) | 4 µg/mL (≈ 8.52 µM) | 0.034 mg/kg | 1.37 µg/mL (≈ 2.92 µM) | 0.125 µg/mL (≈ 0.266 µM) | 1 µg/mL (≈ 2.13 µM) | 2 µg/mL (≈ 4.26 µM) | 4 µg/mL (≈ 8.52 µM) | 3.19 mL/min/kg | 2.34 mL/min/kg | 1 µg/mL (≈ 2.13 µM) | 2 µg/mL (≈ 4.26 µM) | 5.56 mL/min/kg | < 0.03 µg/mL | < 0.031 µg/mL | Rate of hydrolysis [22]: 0.078; AUC ([9]; plasma, read-out: AUC): 30400 ng·h/mL |
| C[C@@H](O)[C@H]1C(=O)N2C(C(=O)O)=C(SCCNC=N)C[C@H]12 [IMIPENEM ANHYDROUS] |  | 0.03 µg/mL (≈ 0.1 µM) |  | 0.008 µg/mL (≈ 0.0267 µM) | 15.7 mg kg-1 dose-1 | 64 µg/mL (≈ 214 µM) | > 64 µg/mL | 0.021 mg/kg | 0.45 µg/mL (≈ 1.5 µM) | 2 µg/mL (≈ 6.68 µM) | 8 µg/mL (≈ 26.7 µM) | 128 µg/mL (≈ 428 µM) | 256 µg/mL (≈ 855 µM) |  |  | 64 µg/mL (≈ 214 µM) | 128 µg/mL (≈ 428 µM) |  | 0.35 µg/mL (≈ 1.17 µM) | < 0.031 µg/mL | Rate of hydrolysis [22]: 1 |
| C[C@@H](O)[C@H]1C(=O)N2C(C(=O)O)=C(c3ccc4c(c3)-c3ccc(C[N+]56CC[N+](CCCO)(CC5)CC6)cc3C4=O)[C@H](C)[C@H]12.[Cl-].[Cl-] | 729 nM |  |  |  |  |  |  |  |  |  |  | 4 µg/mL | 8 µg/mL |  |  | 2 µg/mL | 4 µg/mL |  |  |  |  |
| C[C@@H](O)[C@H]1C(=O)N2C(C(=O)O)=C(c3ccc4c(c3)-c3ccc(C[N+]56CC[N+](CCCO)(CC5)CC6)cc3C4=O)C[C@H]12.[Cl-].[Cl-] | 1270 nM |  |  |  |  |  |  |  |  |  |  | 4 µg/mL | 4 µg/mL |  |  | 2 µg/mL | 8 µg/mL |  |  |  |  |
| C[C@@H](O)[C@H]1C(=O)N2C(C(=O)[O-])=C(c3ccc4c(c3)-c3ccc(C[N+]56CC[N+](CC(N)=O)(CC5)CC6)cc3C4=O)[C@H](C)[C@H]12.[Cl-] | 1320 nM | 0.03 µg/mL | 1.35 h | 0.031 µg/mL | 1 mg kg-1 dose-1 | 2 µg/mL | 8 µg/mL | 0.021 mg/kg | 3.6 µg/mL | 0.5 µg/mL | 8 µg/mL | 4 µg/mL | 8 µg/mL | 3.48 mL/min/kg | 2.72 mL/min/kg | 4 µg/mL | 4 µg/mL | 2.95 mL/min/kg | 0.24 µg/mL | < 0.031 µg/mL | Rate of hydrolysis [22]: 0.021; AUC ([9]; plasma, read-out: AUC): 56400 ng·h/mL |
